Experimental data taken from patent publication US8501215B2, “Injectable multimodal polymer depot compositions and uses thereof” (priority 2002, dated 2013).
Counter-ions that a name gives are not always drawn.

What was measured:
[1] = Saturation concentration of bupivacaine hydrochloride in de-ionized water; type: physicochemical
Procedure: Bupivacaine hydrochloride (Sigma-Aldrich Corporation, St. Louis, Mo.) was dissolved in de-ionized (DI) water at a concentration of 40 mg/ml (saturation). A calculated amount of sodium hydroxide (in the form of 1 N solution) was added to the solution and the pH of the final mixtures was adjusted to ten to precipitate the Bupivacaine base. The precipitated product was filtered, and further washed with DI water for at least three times. The precipitated product was dried at ca. 40° C. in vacuum for 24 hours.

[2] = cited from earlier work

Row | SMILES | concentration in de-ionized (DI) water (saturation) [1] | reported solubility in water [2]
1 | CCCCN1CCCCC1C(=O)Nc1c(C)cccc1C (centres unmarked) [Bupivacaine hydrochloride] | 40000 µg/mL | –
2 | CC(=O)OCC(COC(C)=O)OC(C)=O [triacetin] | – | 7.17 grams in 100 ml of water
